Reference: ChEMBL document CHEMBL1201862, “PubChem BioAssay data set” (2004)
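Test compounds were applied to cells in 96-well plates for 48 hours at 5 doses. GI50 marks 50% less growth.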 Calls of active or inactive are those of the source. Rule as the data show it: active = GI50 up to about 1.1 µM and inactive = higher.

Tests used:
Assay in all cases: inhibition of tumour cell growth, NCI panel, 48 h
[1] = tested on: A549
[2] = tested on: BT-549
[3] = tested on: DU-145
[4] = tested on: EKVX
[5] = tested on: HOP-62
[6] = tested on: HOP-92
[7] = tested on: Hs-578T
[8] = tested on: IGROV-1
[9] = tested on: M14
[10] = tested on: NCI-H460
[11] = tested on: NCI/ADR-RES
[12] = tested on: PC-3
[13] = tested on: SF-539
[14] = tested on: SK-MEL-5
[15] = tested on: SN12C
[16] = tested on: SNB-19
[17] = tested on: SNB-75
[18] = tested on: SR
[19] = tested on: SW-620
[20] = tested on: UO-31

For `CC(C)(C)c1ccc(-c2nc3ccc([N+](=O)[O-])cc3c(=O)o2)cc1`, the GI50 [1] was 28.9 µM (inactive), the GI50 [2] was 24.1 µM (inactive) and the GI50 [3] was 32.7 µM (inactive). For the same compound, the GI50 [4] was 25.4 µM (inactive), the GI50 [5] was 22.2 µM (inactive) and the GI50 [6] was 15.6 µM (inactive). The GI50 [7] was 25.2 µM (inactive), the GI50 [8] was 44.2 µM (inactive) and the GI50 [9] was 26.5 µM (inactive). The GI50 [10] was 36.4 µM (inactive), the GI50 [11] was 25.4 µM (inactive) and the GI50 [12] was 21.2 µM (inactive). The GI50 [13] was 17.1 µM (inactive), the GI50 [14] was 27.2 µM (inactive) and the GI50 [15] was 40.1 µM (inactive). For the same compound, the GI50 [16] was 21.5 µM (inactive), the GI50 [17] was 24.9 µM (inactive) and the GI50 [18] was 22.7 µM (inactive). The GI50 [19] was 31 µM (inactive) and the GI50 [20] was 32.9 µM (inactive).
`Cc1ccc2c(c1)C(=O)C1(C2)Cc2c(C)cccc2C1=O` (stereo not given) was tested, and the GI50 [1] was > 100 µM (inactive), the GI50 [2] was > 100 µM (inactive) and the GI50 [3] was > 100 µM (inactive). The GI50 [4] was > 100 µM (inactive), the GI50 [5] was > 100 µM (inactive) and the GI50 [6] was > 100 µM (inactive). The GI50 [7] was > 100 µM (inactive), the GI50 [8] was > 100 µM (inactive) and the GI50 [9] was > 100 µM (inactive). The GI50 [10] was > 100 µM (inactive), the GI50 [11] was > 100 µM (inactive) and the GI50 [12] was > 100 µM (inactive). The GI50 [13] was > 100 µM (inactive), the GI50 [14] was > 100 µM (inactive) and the GI50 [15] was > 100 µM (inactive). For the same compound, the GI50 [16] was > 100 µM (inactive), the GI50 [17] was > 100 µM (inactive) and the GI50 [18] was > 100 µM (inactive). The GI50 [19] was > 100 µM (inactive) and the GI50 [20] was > 100 µM (inactive).
For `CCC(=O)C(CCN1CCC2(CCCc3ccccc32)CC1)(c1ccccc1)c1ccccc1`, the GI50 [1] was 3.63 µM (inactive), the GI50 [2] was 0.685 µM (active) and the GI50 [3] was 3.1 µM (inactive). For the same compound, the GI50 [4] was 4 µM (inactive), the GI50 [5] was 3.28 µM (inactive) and the GI50 [6] was 1.47 µM (inactive). For the same compound, the GI50 [7] was 2.33 µM (inactive), the GI50 [8] was 2.77 µM (inactive) and the GI50 [9] was 1.87 µM (inactive). For the same compound, the GI50 [10] was 2.52 µM (inactive), the GI50 [11] was 3.19 µM (inactive) and the GI50 [12] was 2.45 µM (inactive). For the same compound, the GI50 [13] was 2.95 µM (inactive), the GI50 [14] was 1.49 µM (inactive) and the GI50 [15] was 2.29 µM (inactive). The GI50 [16] was 4.75 µM (inactive), the GI50 [17] was 2.95 µM (inactive) and the GI50 [18] was 1.66 µM (inactive). The GI50 [19] was 2.87 µM (inactive) and the GI50 [20] was 2.39 µM (inactive).
`FC(F)(F)c1n[nH]c(SCc2ccc(Cl)cc2)n1` was tested, and the GI50 [1] was > 100 µM (inactive), the GI50 [2] was > 100 µM (inactive) and the GI50 [3] was > 100 µM (inactive). The GI50 [4] was > 100 µM (inactive), the GI50 [5] was > 100 µM (inactive) and the GI50 [6] was > 100 µM (inactive). For the same compound, the GI50 [7] was 94.8 µM (inactive), the GI50 [8] was > 100 µM (inactive) and the GI50 [9] was > 100 µM (inactive). The GI50 [10] was > 100 µM (inactive), the GI50 [11] was > 100 µM (inactive) and the GI50 [12] was > 100 µM (inactive). For the same compound, the GI50 [13] was > 100 µM (inactive), the GI50 [14] was > 100 µM (inactive) and the GI50 [15] was > 100 µM (inactive). For the same compound, the GI50 [16] was > 100 µM (inactive), the GI50 [17] was > 100 µM (inactive) and the GI50 [18] was > 100 µM (inactive). The GI50 [19] was > 100 µM (inactive) and the GI50 [20] was 59.4 µM (inactive).
